PubChem BioAssay (NCI)
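How tested: cells in 96-well plates exposed to compound for 48 hours at five concentrations. At the GI50, growth is halved. At the TGI there is no net growth.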

What was measured:
Test in all cases: DTP human tumour cell line panel, 48 h
786-0 renal = tested on: 786-0 renal
A498 renal = tested on: A498 renal
A549 NSCLC = tested on: A549 NSCLC
ACHN renal = tested on: ACHN renal
BT-549 breast = tested on: BT-549 breast
CAKI-1 renal = tested on: CAKI-1 renal
CCRF-CEM leukemia = tested on: CCRF-CEM leukemia
COLO 205 colon = tested on: COLO 205 colon
DU-145 prostate = tested on: DU-145 prostate
EKVX NSCLC = tested on: EKVX NSCLC
HCC-2998 colon = tested on: HCC-2998 colon
HCT-116 colon = tested on: HCT-116 colon
HCT-15 colon = tested on: HCT-15 colon
HL-60(TB) leukemia = tested on: HL-60(TB) leukemia
HOP-62 NSCLC = tested on: HOP-62 NSCLC
HOP-92 NSCLC = tested on: HOP-92 NSCLC
HS 578T breast = tested on: HS 578T breast
HT29 colon = tested on: HT29 colon
IGROV1 ovarian = tested on: IGROV1 ovarian
K-562 leukemia = tested on: K-562 leukemia
KM12 colon = tested on: KM12 colon
LOX IMVI melanoma = tested on: LOX IMVI melanoma
M14 melanoma = tested on: M14 melanoma
MALME-3M melanoma = tested on: MALME-3M melanoma
MCF7 breast = tested on: MCF7 breast
MDA-MB-231 breast = tested on: MDA-MB-231 breast
MDA-MB-435 = tested on: MDA-MB-435
MDA-N = tested on: MDA-N
MOLT-4 leukemia = tested on: MOLT-4 leukemia
NCI-H226 lung = tested on: NCI-H226 lung
NCI-H23 lung = tested on: NCI-H23 lung
NCI-H460 lung = tested on: NCI-H460 lung
NCI-H522 lung = tested on: NCI-H522 lung
NCI/ADR-RES ovarian = tested on: NCI/ADR-RES ovarian
OVCAR-3 ovarian = tested on: OVCAR-3 ovarian
OVCAR-4 ovarian = tested on: OVCAR-4 ovarian
OVCAR-5 ovarian = tested on: OVCAR-5 ovarian
OVCAR-8 ovarian = tested on: OVCAR-8 ovarian
PC-3 prostate = tested on: PC-3 prostate
RPMI-8226 leukemia = tested on: RPMI-8226 leukemia
RXF 393 renal = tested on: RXF 393 renal
SF-268 CNS = tested on: SF-268 CNS
SF-295 CNS = tested on: SF-295 CNS
SK-MEL-2 melanoma = tested on: SK-MEL-2 melanoma
SK-MEL-28 melanoma = tested on: SK-MEL-28 melanoma
SK-MEL-5 melanoma = tested on: SK-MEL-5 melanoma
SK-OV-3 ovarian = tested on: SK-OV-3 ovarian
SN12C renal = tested on: SN12C renal
SNB-19 CNS = tested on: SNB-19 CNS
SNB-75 CNS = tested on: SNB-75 CNS
SR leukemia = tested on: SR leukemia
SW-620 colon = tested on: SW-620 colon
T-47D breast = tested on: T-47D breast
TK-10 renal = tested on: TK-10 renal
U251 CNS = tested on: U251 CNS
UACC-257 melanoma = tested on: UACC-257 melanoma
UACC-62 melanoma = tested on: UACC-62 melanoma
UO-31 renal = tested on: UO-31 renal

CCCCOC(=O)CC(CC(=O)OCCCC)(OC(C)=O)C(=O)OCCCC
TGI (786-0 renal): > 200 µM | TGI (A498 renal): > 200 µM | TGI (A549 NSCLC): > 200 µM | TGI (ACHN renal): > 200 µM | TGI (BT-549 breast): > 200 µM | TGI (CAKI-1 renal): > 200 µM | TGI (CCRF-CEM leukemia): > 200 µM | TGI (COLO 205 colon): > 200 µM | TGI (DU-145 prostate): > 200 µM | TGI (EKVX NSCLC): > 200 µM | TGI (HCC-2998 colon): > 200 µM | GI50 (HCT-116 colon): 70.9 µM | TGI (HCT-116 colon): > 200 µM | TGI (HCT-15 colon): > 200 µM | GI50 (HL-60(TB) leukemia): 49.1 µM | TGI (HL-60(TB) leukemia): > 179 µM | TGI (HOP-62 NSCLC): > 200 µM | TGI (HOP-92 NSCLC): > 200 µM | TGI (HS 578T breast): > 200 µM | GI50 (HT29 colon): 68.8 µM | TGI (HT29 colon): > 200 µM | TGI (IGROV1 ovarian): > 200 µM | GI50 (K-562 leukemia): 53.2 µM | TGI (K-562 leukemia): > 200 µM | TGI (KM12 colon): > 200 µM | GI50 (LOX IMVI melanoma): 40.5 µM | TGI (LOX IMVI melanoma): > 200 µM | TGI (M14 melanoma): > 200 µM | TGI (MALME-3M melanoma): > 200 µM | TGI (MCF7 breast): > 200 µM | TGI (MDA-MB-231 breast): > 200 µM | TGI (MDA-MB-435): > 200 µM | TGI (MDA-N): > 200 µM | GI50 (MOLT-4 leukemia): 24.8 µM | TGI (MOLT-4 leukemia): > 200 µM | GI50 (NCI-H226 lung): 55.6 µM | TGI (NCI-H226 lung): 198 µM | TGI (NCI-H23 lung): > 200 µM | TGI (NCI-H460 lung): > 200 µM | TGI (NCI-H522 lung): > 200 µM | GI50 (NCI/ADR-RES ovarian): 74.2 µM | TGI (NCI/ADR-RES ovarian): > 200 µM | TGI (OVCAR-3 ovarian): > 200 µM | GI50 (OVCAR-4 ovarian): 69.1 µM | TGI (OVCAR-4 ovarian): > 200 µM | TGI (OVCAR-5 ovarian): > 200 µM | TGI (OVCAR-8 ovarian): > 200 µM | GI50 (PC-3 prostate): 86.5 µM | TGI (PC-3 prostate): > 200 µM | GI50 (RPMI-8226 leukemia): 29.2 µM | TGI (RPMI-8226 leukemia): 123 µM | GI50 (RXF 393 renal): 96 µM | TGI (RXF 393 renal): > 124 µM | TGI (SF-268 CNS): > 200 µM | GI50 (SF-295 CNS): 54.3 µM | TGI (SF-295 CNS): > 200 µM | TGI (SK-MEL-2 melanoma): > 200 µM | TGI (SK-MEL-28 melanoma): > 200 µM | GI50 (SK-MEL-5 melanoma): 28.4 µM | TGI (SK-MEL-5 melanoma): > 200 µM | TGI (SK-OV-3 ovarian): > 200 µM | TGI (SN12C renal): > 200 µM | TGI (SNB-19 CNS): > 200 µM | TGI (SNB-75 CNS): 56.4 µM | GI50 (SR leukemia): 32.2 µM | TGI (SR leukemia): > 50.7 µM | TGI (SW-620 colon): > 200 µM | GI50 (T-47D breast): 26.4 µM | TGI (T-47D breast): > 200 µM | TGI (TK-10 renal): > 200 µM | GI50 (U251 CNS): 92.6 µM | TGI (U251 CNS): > 200 µM | TGI (UACC-257 melanoma): > 200 µM | TGI (UACC-62 melanoma): > 200 µM | TGI (UO-31 renal): 98.2 µM
